Data: patent publication US7888351B2, “Organic compounds” (Novartis AG, priority 2006, dated 2011)

These molecules were tested against T1, human DPP-IV (Homo sapiens, UniProt P27487) (assay: Activity assay: inhibitory activity to human DPP-IV (fluorogenic substrate H-Gly-Pro-AMC)). Settings: substrate H-Gly-Pro-AMC 10 μM, enzyme 10 pM, room temperature, 1 hour; read-out: hDPPIV IC50.
T1 construct: Human DPP-IV consisting of amino acids 39 to 766 followed by a C-terminal Streptavidin-tag; Streptavidin-tag (C); made in house
T1 sequence (P27487 39-766): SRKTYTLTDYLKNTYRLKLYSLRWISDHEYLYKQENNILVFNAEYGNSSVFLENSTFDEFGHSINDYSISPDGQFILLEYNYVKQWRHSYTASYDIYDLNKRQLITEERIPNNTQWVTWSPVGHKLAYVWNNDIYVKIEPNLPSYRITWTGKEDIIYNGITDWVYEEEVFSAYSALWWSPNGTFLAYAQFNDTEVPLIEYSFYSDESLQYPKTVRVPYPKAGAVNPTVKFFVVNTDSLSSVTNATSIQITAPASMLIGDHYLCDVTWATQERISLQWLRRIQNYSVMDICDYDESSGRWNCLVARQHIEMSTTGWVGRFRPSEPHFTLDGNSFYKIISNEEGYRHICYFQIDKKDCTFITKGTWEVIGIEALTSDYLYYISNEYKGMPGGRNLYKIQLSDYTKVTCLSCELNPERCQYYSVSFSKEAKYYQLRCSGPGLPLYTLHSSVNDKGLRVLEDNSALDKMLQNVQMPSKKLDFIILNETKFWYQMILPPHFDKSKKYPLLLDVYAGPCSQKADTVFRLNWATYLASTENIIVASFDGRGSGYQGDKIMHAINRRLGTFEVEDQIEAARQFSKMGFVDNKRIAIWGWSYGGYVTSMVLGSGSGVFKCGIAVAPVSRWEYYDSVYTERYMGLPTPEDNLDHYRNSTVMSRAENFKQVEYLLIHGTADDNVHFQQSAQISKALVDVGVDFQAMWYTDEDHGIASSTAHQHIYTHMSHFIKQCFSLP
Assay type: biochemical
Description: Various compounds of the invention were tested for their inhibitory activity to human DPP-IV.
Human DPP-IV consisting of amino acids 39 to 766 followed by a C-terminal Streptavidin-tag was expressed using the baculovirus system and purified to >80% purity. The enzyme was stored in 25 mM Tris buffer, pH 9.0, containing 300 mM NaCl at −80° C. The fluorogenic substrates H-Gly-Pro-AMC was purchased from Bachem AG (Bubendorf, Switzerland). The substrate was kept as a 5 mM stock solution in DMSO at −20° C. All other chemicals were purchased from Sigma (Buchs, Switzerland).
The assay buffer for the DPP-IV reaction was 25 mM Tris/HCl, pH 7.5, containing 140 mM NaCl, 10 mM KCl and 0.05% (w/v) CHAPS.
The test compounds were dissolved in 90% DMSO/10% H2O (v/v). Serial dilutions of the compounds from 3 mM to 0.03 μM in 90% DMSO/10% H2O (v/v) followed by a 1:33.3 dilution in assay buffer was done in 96-well polypropylene plates using a CyBio Dilus 8-channel pipetter (CyBio AG, Jena, Germany) with tip change after each pipetting step. The compound solutions as well as the substrate and the enzyme solutions were transferred to the assay plates (384-well black Cliniplate; cat. no. 95040020 Labsystems Oy, Finland) by means of a CyBi-Well 96-channel pipetter (CyBio AG, Jena, Germany).
Enzyme kinetics were measured by mixing 10 μl of a 3-fold concentrated substrate solution in assay buffer (final substrate concentration was 10 μM) with 10 μl of the corresponding compound solution. The reactions were initiated by addition of 10 μl of a 3-fold concentrated solution of the enzyme in assay buffer. Final enzyme (active site) concentrations in the assay was 10 pM for DPP-IV. Fluorescence product (AMC) formation was monitored for 1 hour at room temperature at 35 second intervals by measuring the fluorescence emission at 500 nm using an exitation wavelength of 350 nm in a TECAN Ultra fluorescence reader (TECAN, Maennedorf, Switzerland). The fluorescence in each well was excited by one flash per measurement. The Origin software package (Origin 7.5 Mircocal, Northampton, Mass., USA) was used to generate all graphs and to perform the IC50 calculations.
`Cc1cnc(C(=O)NCCS(=O)(=O)N2[C@@H]3CC[C@H]2C[C@H]([C@H](N)Cc2cc(F)c(F)cc2F)C3)cn1` [Example D1, 5-Methyl-pyrazine-2-carboxylic acid (2-{3-exo-[(R)-1-amino-2-(2,4,5-trifluoro-phenyl)-ethyl]-8-aza-bicyclo[3.2.1]octane-8-sulfonyl}-ethyl)-amide] was tested, and the IC50 was 7.7 nM.
`C[C@](O)(C(=O)N1[C@@H]2CC[C@H]1C[C@H]([C@H](N)Cc1cc(F)c(F)cc1F)C2)c1ccccc1` [Example G4, (R)-1-{3-exo-[(R)-1-Amino-2-(2,4,5-trifluoro-phenyl)-ethyl]-8-aza-bicyclo[3.2.1]oct-8-yl}-2-hydroxy-2-phenyl-propan-1-one] showed an IC50 of 10 nM.
`N[C@H](Cc1cc(F)c(F)cc1F)[C@@H]1C[C@H]2CC[C@@H](C1)N2C(=O)CNC(=O)C1(O)CC1` [Example E7, 1-Hydroxy-cyclopropanecarboxylic acid (2-{3-exo-[(R)-1-amino-2-(2,4,5-trifluoro-phenyl)-ethyl]-8-aza-bicyclo[3.2.1]oct-8-yl}-2-oxo-ethyl)-amide] gave an IC50 of 0.6 nM.
Work on `N[C@H](Cc1cc(F)c(F)cc1F)[C@@H]1C[C@H]2CC[C@@H](C1)N2C(=O)CS(=O)(=O)N1Cc2ccccc2C1` [Example H13, 1-{3-exo-[(R)-1-Amino-2-(2,4,5-trifluoro-phenyl)-ethyl]-8-aza-bicyclo[3.2.1]oct-8-yl}-2-(1,3-dihydro-isoindole-2-sulfonyl)-ethanone] yielded an IC50 of 7 nM.
